Patent US4444780A, “Method for treating atopic dermatitis” (priority 1982, dated 1984)
“Also recorded” adds a separate entry of the source. Where two headings read alike, the source gives them in different places.

What was measured:
Δ5 -lipoxygenase = target: T1, Δ5 -lipoxygenase (Rattus norvegicus, UniProt P12527); assay: Lipoxygenase activity in Rat Basophilic Leukemia Cells (RBL-1), 5-HETE formation; type: cell-based; details: for effect on lipoxygenase activity (in words): rat basophilic cells
T1 construct: Crude cell extract was used as the source of the Δ5 -lipoxygenase enzyme; endogenous in cells; host or cells: RBL-1 (rat basophilic leukemia) cells, whole or sonicated crude extract
T1 sequence (P12527 1-673): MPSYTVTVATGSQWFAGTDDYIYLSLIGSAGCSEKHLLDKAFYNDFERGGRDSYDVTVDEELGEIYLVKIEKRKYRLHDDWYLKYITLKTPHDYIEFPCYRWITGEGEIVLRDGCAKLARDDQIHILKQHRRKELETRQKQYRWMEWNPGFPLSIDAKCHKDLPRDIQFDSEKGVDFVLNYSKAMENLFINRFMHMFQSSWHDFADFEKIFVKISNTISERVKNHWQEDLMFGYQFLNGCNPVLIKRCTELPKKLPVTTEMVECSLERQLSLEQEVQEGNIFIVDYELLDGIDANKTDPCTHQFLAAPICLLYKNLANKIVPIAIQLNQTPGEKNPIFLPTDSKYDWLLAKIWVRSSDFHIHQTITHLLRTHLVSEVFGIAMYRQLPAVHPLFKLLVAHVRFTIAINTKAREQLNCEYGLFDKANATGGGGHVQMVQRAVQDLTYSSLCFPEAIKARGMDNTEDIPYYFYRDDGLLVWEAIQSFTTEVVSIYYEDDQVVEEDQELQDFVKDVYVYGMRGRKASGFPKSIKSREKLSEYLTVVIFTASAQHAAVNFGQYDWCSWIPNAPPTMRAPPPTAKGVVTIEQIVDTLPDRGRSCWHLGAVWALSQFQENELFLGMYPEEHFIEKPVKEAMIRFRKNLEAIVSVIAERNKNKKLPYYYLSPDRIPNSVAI
Experimental: Rat basophilic leukemia cells (RBL-1) are basophilic members of the leukocyte series and constitute a circulating form of the mast cell, i.e. they share many or all of the biochemical features of the mast cell involved in mediator release. As leukemic cells they are readily available as they can be grown in culture. RBL-1 cells were grown in minimal essential medium (MEM) containing 10% fetal calf serum, 5% calf serum, 2 mM glutamine, and 50 μg/ml gentamicin. The cells were harvested for each assay, washed once with 50 mM potassium phosphate, 1 mM EDTA, and 0.1% gelatin, pH=7.0. The cells were then resuspended to a concentration of 1.85×10^7 cells/ml. For broken cell assays (i.e. to measure direct effects on the enzyme), these cells were sonicated in an ultrasonic sonifier for 3 minutes while maintaining the sample temperature at 4° C. Crude cell extract was used as the source of the Δ5 -lipoxygenase enzyme. […] The reaction was stopped by the addition of 1 M citric acid to give a final pH of approximately 3.5. The reaction mixture was extracted with diethylether, brought to dryness under a stream of nitrogen and the residues were resuspended and spotted on Gilman ITLC silica gel-impregnated glass filter strips. Synthetic hydroxyeicosotetraenoic acid (5-HETE) standard was spotted with each sample and the sheets were developed in isoctane:2-butanone:glacial acetic acid (100:9:1). After development, the sheets were dried, and the 5-HETE standard was visualized in a tank of iodine crystals. Areas corresponding to 5-HETE were quantitated by liquid scintillation counting. The remainder of each lane was also counted in four sections. Activity was determined as the percent conversion of the total counts in each lane to the area corresponding to 5-HETE. Percent inhibition was calculated from the change in percent conversion in the presence of drug. Blanks determined in the presence of boiled cells were subtracted from all values.

[1] = tested on: K^+ -stimulated Ca^++ -uptake in rabbit aortic slices; assay: Calcium Uptake in Rabbit Aorta (K+-stimulated Ca++ uptake in aortic slices); type: cell-based, New Zealand white rabbits; details: for inhibition of K+-stimulated Ca++ uptake (in words): rabbit aortic slices, FIG. 2; for effects on calcium mechanisms / calcium movement assays (in words): summary over aortic uptake and contraction assays
Experimental: Female, New Zealand white rabbits (1-2 kg) were sacrificed by cervical dislocation, and the thoracic […] was immediately removed, cleaned, and sliced into rings (5-20 mg). The tissue was preincubated at 37° C. for 60 minutes. […] After allowing radioactive calcium uptake to occur for 45 minutes, the reaction was stopped by transferring the tissue to a wash-out solution containing 80 mM LaCl3 for 30 minutes. The tissue was removed, blotted of excess moisture, and weighed. The aortic slices were then placed into scintillation vials containing 1 ml Protosol tissue solubilizer and incubated overnight at 55° C. After coding and acidifying, the samples were counted to determine ^45 Ca uptake. Sample results were normalized to counts per minutes per mg, wet tissue weight.

[2] = tested on: passive cutaneous anaphylaxis reaction; assay: Passive Cutaneous Anaphylaxis Test (PCA), topical antiallergic activity; type: in vivo, Male Sprague Dawley rats; details: for inhibition in vivo at 0.02 % / inhibition in vivo at 0.2 % / inhibition in vivo at 2 % / inhibition in vivo at 0.01 % / inhibition in vivo at 1 %: Rattus norvegicus, read-out: Percent Inhibition
Excerpt: Male Sprague Dawley rats (175-200 grams) were sensitized intradermally with 0.1 cc of high dilution of antiovalbumin antiserum (IgE-containing) that was predetermined to cause a well circumscribed and reproducible skin wheal response. Two intradermal sensitization sites were applied to the backs of each rat. […] One hour later the rats were challenged intravenously with a solution containing 0.5% ovalbumin and 0.5% Evans blue dye in a saline vehicle. Twenty minutes later the rats were killed by carbon dioxide asphyxiation, the dorsal skin reflected and the blue wheal measured as the mean of the two largest perpendiculars. This mean was used to calculate the area of the wheal according to [A=π(d/2)^2 ]. The wheal area under the drug-treated site was used as an index of local topical activity and the distant site served as an index of systemic activity.

[3] = tested on: K^+ -Stimulated Ca^++ -mediated Contractions of Rabbit Aortic Strips; assay: Potassium-Induced Calcium-Mediated Contraction of Aortic Strips; type: cell-based, New Zealand strain rabbits; details: for IC50: Oryctolagus cuniculus, read-out: IC50, K+-stimulated Ca++-mediated contractions
Excerpt: New Zealand strain rabbits (1-1.5 kg) were sacrificed by cervical dislocation and the thoracic cavity was opened to expose a section of the aorta. A section of the aorta from the diaphragm to the aortic arch was isolated, dissected out and immediately placed in chilled Krebs bicarbonate buffer solution. A 2 inch section of the aorta was supported on a glass rod in a petri dish with chilled Krebs bicarbonate solution and cleaned of excess tissue. The aorta was then cut into helical strips (3×30 mm) and suspended from a FT03 isometric force displacement transducer coupled to a Beckman recorder. The tissue bath was filled with Krebs bicarbonate buffer maintained at 37° C. and bubbled with 95% 02 and 5% CO2. The helical strips were allowed to equilibrate for 1.5 to 2 hours with a 4 gram resting load. The tissues were dosed in a cumulative manner with 10 mM, 15 mM, 20 mM, 30 mM, 40 mM, 80 mM and 120 mM KCl. The tissues were washed several times after the KCl treatment and were allowed to equilibrate for 1-1.5 hours until a baseline equivalent to 4 grams tension was achieved. A second dose-response to KCl was repeated and again washed and allowed to equilibrate. […] Changes in grams tension were recorded.

[4] = RBL-1, 1 μM, read-out: % Inhibition of lipoxygenase activity
[5] = RBL-1, 100 μM, read-out: % Inhibition of lipoxygenase activity
[6] = RBL-1, read-out: % Inhibition of lipoxygenase activity

| Compound | effect on lipoxygenase activity (in words) (Δ5 -lipoxygenase) | inhibition in vivo at 0.02 % ([2]; Topical Dose 0.02%) [%] | inhibition in vivo at 0.2 % ([2]; Topical Dose 0.20%) [%] | inhibition in vivo at 2 % ([2]; Topical Dose 2.00%) [%] | Significance (P < .05) of inhibition ([2]; Topical Dose 0.02%) | Significance (P < .05) of inhibition ([2]; Topical Dose 0.20%) | Significance (P < .05) of inhibition ([2]; Topical Dose 2.00%) | activity in the PCA test (in words) ([2]; topical) | inhibition at 100 µM (Δ5 -lipoxygenase; [6]) [%] | inhibition of vascular contraction (in words) ([3]; rabbit aortic strips) | Significance (P < .05) of inhibition ([2]; Topical Dose 1.00%) | other results |
| --- | --- | --- | --- | --- | --- | --- | --- | --- | --- | --- | --- | --- |
| CN(C)CCC(c1ccc(Cl)cc1)c1ccccn1 (stereo not drawn) [Chlorpheniramine, chlorpheniramine] | totally inactive; also recorded: None of the compounds produced significant inhibition | 20 | 16.3 | 16.7 | No | No | No | totally inactive | – | – | – | inhibition at 1 µM (Δ5 -lipoxygenase; [4]): 0%; inhibition at 100 µM (Δ5 -lipoxygenase; [5]): 1%; Inhibition of 45Ca++ Uptake Aortic Slices (summary grade) ([1]; Table 4 grade, symbols not defined): +; inhibition of K+-stimulated Ca++ uptake (in words) [1]: totally inactive; effects on calcium mechanisms / calcium movement assays (in words) [1]: marginal effects |
| Fc1ccc(C(c2ccc(F)cc2)N2CCN(C/C=C/c3ccccc3)CC2)cc1 [Flunarizine, flunarizine] | – | 16.3 | 13 | 17.2 | No | No | No | inactive | – | – | – | – |
| CN(C)CCOC(c1ccccc1)c1ccccc1 [Diphenhydramine, diphenhydramine] | – | 0 | 8.5 | 43.9 | No | No | No | inactive | – | – | – | – |
| CN1CCC(=C2c3ccccc3C=Cc3ccccc32)CC1 [Cyproheptadine, cyproheptadine] | statistically equipotent effects on lipoxygenase activity from either whole or broken cells | – | – | – | – | – | – | potent topical antiallergic effect | 78 | potent inhibitors | Yes | IC50 ([1]; Oryctolagus cuniculus, read-out: IC50, K+-stimulated Ca++ uptake): ~1000 nM; inhibition in vivo at 0.01 % ([2]; topical): 11.7%; inhibition in vivo at 1 % ([2]; topical): 98.1%; Significance (P < .05) of inhibition ([2]; Topical Dose 0.01%): No; Percent Inhibition ([2]; Topical Dose 0.10%): 25.0%; Significance (P < .05) of inhibition ([2]; Topical Dose 0.10%): Yes; topical ED50, inhibition in the PCA test ([2]; topical 0.1 ml, 1 hour before challenge, vehicle water/alcohol/N-decylmethylsulfoxide, 95% F.L. 0.07, 0.25): 0.13%; inhibition of cutaneous allergic reaction (in words) ([2]; topical, 1% dose): virtually complete inhibition |
| CN(C)CCOc1ccccc1Cc1ccccc1 [Phenyltoloxamine, phenyltoloxamine] | – | 2.6 | 14.3 | 25.9 | No | No | No | inactive | – | – | – | – |
| COc1ccc(CCN(C)CCCC(C#N)(c2ccc(OC)c(OC)c2)C(C)C)cc1OC (stereo not drawn) [Verapamil, verapamil] | slight activity; also recorded: None of the compounds produced significant inhibition with the exception of the very high dose (1×10^-4 M) of verapamil | – | – | – | – | – | – | totally inactive | 51 | potent inhibitors | No | inhibition at 1 µM (Δ5 -lipoxygenase; [6]): 0%; IC50 [3]: 0.55 µM; inhibition in vivo at 1 % ([2]; topical): 0% |
| OCCOCCN1CCN(C(c2ccccc2)c2ccc(Cl)cc2)CC1 (stereo not drawn) [Hydroxyzine, hydroxyzine] | totally inactive; also recorded: None of the compounds produced significant inhibition | – | – | – | – | – | – | totally inactive | – | orders of magnitude less potent | No | inhibition at 1 µM (Δ5 -lipoxygenase; [4]): 0%; inhibition at 100 µM (Δ5 -lipoxygenase; [5]): 15%; inhibition of K+-stimulated Ca++ uptake (in words) [1]: did not produce 50% inhibition even at a concentration of an order of magnitude greater than the IC50 for cyproheptadine; effects on calcium mechanisms / calcium movement assays (in words) [1]: marginal effects; IC50 ([3]; rabbit aortic strips): 50 µM; inhibition in vivo at 0.01 % ([2]; Topical Dose 0.01%): 0%; inhibition in vivo at 1 % ([2]; Topical Dose 1.00%): 0%; Significance (P < .05) of inhibition ([2]; Topical Dose 0.01%): No; Percent Inhibition ([2]; Topical Dose 0.10%): 9.7%; Significance (P < .05) of inhibition ([2]; Topical Dose 0.10%): No |
| CC[C@@H](CO)NC(=O)[C@@H]1C=C2c3cccc4c3c(cn4C)C[C@H]2N(C)C1 [Methysergide, methysergide] | None of the compounds produced significant inhibition | – | – | – | – | – | – | – | 30 | – | – | inhibition at 1 µM (Δ5 -lipoxygenase; [6]): 1% |
